Experimental findings from patent US20240246940A1, “HETEROARYL DERIVATIVE COMPOUND AND USE THEREOF” (VORONOI INC., priority 2021, published 2024) are described below.

The subject of assay [1] is HaCaT cells (EGFR expressing cell line). In words: HaCaT cell proliferation inhibitory activity (CellTiter-Glo, 72 hours). The class given is cell-based. In short, it runs like this:
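GI50 derived from % growth versus control from CellTiter-Glo luminescence, each test run three times. SK-BR-3 and BT-474 are seeded 48 h ahead at 5000/well and dosed at 0.2 nM–10 μM. N-87 (5000/well) gets […]–5 μM and HaCaT (3000/well) gets 0.8 nM–45 μM, both seeded 24 h ahead.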
Background: Cellular ATP, detected with luciferase, serves as a proxy for viable cell number.

Assay [2] concerns BT-474 cells (HER2 overexpressing cell line). The assay is described as follows: BT-474 cell proliferation inhibitory activity (CellTiter-Glo, 120 hours). The class given is cell-based. How it is done: To evaluate the cell proliferation inhibitory activity of the compound according to the present invention on HER2 and EGFR kinases, the following method was performed using HER2 overexpressing cell lines (SK-BR-3, BT-474, and N-87) and EGFR expressing cell line (HaCaT).
McCOY'S 5A supplemented with 10% FBS was used for SK-BR-3 cells, RPMI-1640 medium supplemented with 20% FBS was used for BT-474 cancer cells, and RPMI-1640 medium supplemented with 10% FBS was used for N-87 cancer cells. DMEM supplemented with 10% FBS was used for HaCaT cells.
For SK-BR-3 cells, 5000 cells were aliquoted into each well of a white clear bottom 96 well plate (Corning) 48 hours before treatment with the compounds of Examples. For BT-474 cells, 5000 cells were aliquoted into each well of a white clear bottom 96 well plate (Corning) 48 hours before treatment with the compounds of Examples. For N-87 cells, 5000 cells were aliquoted into each well of a white clear bottom 96 well plate (Corning) 24 hours before treatment with the compounds of Examples. For HaCaT cells, 3000 cells were aliquoted into each well of a white clear bottom 96 well plate (Corning) 24 hours before treatment with the compounds of Examples. For SK-BR-3 cells and BT-474 cells, the compounds of Examples were diluted in dimethyl sulfoxide (three-fold dilution, a total of 11 concentrations) and injected each in an amount of 1 μl to a final concentration of 0.2 nM to 10 μM. For N-87 cells, the compounds of Examples were diluted in dimethyl sulfoxide (five-fold dilution, a total of 11 concentrations) and injected each in an amount of 0.5 μl to a final concentration of […] to 5 μM. For HaCaT cells, the compounds of Examples were diluted in dimethyl sulfoxide (three-fold dilution, a total of 11 concentrations) and injected each in an amount of 0.5 μl to a final concentration of 0.8 nM to 45 μM. For the measurement of living cells, the cells were stored at room temperature for 10 minutes using CellTiter-Glo cell viability reagent (Promega) after a certain period of time (SK-BR-3: 120 hours, BT-474: 120 hours, N-87: 72 hours, and HaCaT: 72 hours) post treatment with the compounds of Examples, and the luminescence intensity thereof was measured using a reader (SynergyNeo, Biotek). Each test was repeated three times.
The result values were calculated as a cell growth rate (%) compared to those of the control group. A graph was created using the GraphPad Prism version 5.0 program, and GI50 values were calculated.

Read-outs that look alike come from different tables or passages of the source.

By GI50 is commonly meant the concentration at which growth is held to half of that of the control. Regarding `COc1ccc(-c2ccc(F)cc2F)cc1Nc1ncnc2cc(OC)c(OC3CCN(C(=O)C(F)Cl)CC3)cc12` (centres unmarked) [Example 187, 2-chloro-1-(4-((4-((2′,4′-difluoro-4-methoxy-[1,1′-biphenyl]-3-yl)amino)-7-methoxy-quinazolin-6-yl)oxy)piperidin-1-yl)-2-fluoroethan-1-one], the GI50 in assay [1] (Homo sapiens) was not above 150 nM; in assay [2] (Homo sapiens), 150 to 1000 nM.
For `COc1cc2ncnc(Nc3cc(-c4ccc(F)cc4F)ccc3OC)c2cc1NC(=O)/C=C/CN1CCN(C)CC1` [Example 317, (E)-N-(4-((2′,4′-difluoro-4-methoxy-[1,1′-biphenyl]-3-yl)amino)-7-methoxyquinazolin-6-yl)-4-(4-methylpiperazin-1-yl)but-2-enamide] the same measures were not above 150 nM and not above 150 nM.
As for `COc1ccc(-c2ccc(F)cc2F)cc1Nc1ncnc2ccc(NC(=O)/C=C/CN(C)C)c(Cl)c12` [Example 320, (E)-N-(5-chloro-4-((2′,4′-difluoro-4-methoxy-[1,1′-biphenyl]-3-yl)amino)quinazolin-6-yl)-4-(dimethylamino)but-2-enamide], the GI50 in assay [1] (Homo sapiens) and in assay [2] (Homo sapiens) was 150 to 1000 nM in each case.
For the molecule `C=CC(=O)N1CC2(CC(Oc3cc4c(Nc5cc(-c6ccco6)ccc5OC)ncnc4cc3OC)C2)C1` [Example 218, 1-(6-((4-((5-(furan-2-yl)-2-methoxyphenyl)amino)-7-methoxy-quinazolin-6-yl)oxy)-2-azaspiro[3.3]heptan-2-yl)prop-2-en-1-one], the GI50 in assay [1] (Homo sapiens) is 150 to 1000 nM; in assay [2] (Homo sapiens), more than 1000 nM.
On to `C=CC(=O)N1CCC(Nc2cc3c(Nc4cc(-c5ccc(F)cc5F)ccc4OC)ncnc3cc2OC(F)F)CC1` [Example 297, 1-(4-((4-((2′,4′-difluoro-4-methoxy-[1,1′-biphenyl]-3-yl)amino)-7-(difluoromethoxy)quinazolin-6-yl)amino)piperidin-1-yl)prop-2-en-1-one], for which the GI50 in assay [1] (Homo sapiens) and in assay [2] (Homo sapiens) was not above 150 nM throughout.
As to `C=CC(=O)N1CCC(Oc2cc3c(Nc4cc(-c5ccc6ccsc6c5)ccc4OC)ncnc3cc2OC)CC1` [Example 193, 1-(4-((4-((5-(benzo[b]thiophen-6-yl)-2-methoxyphenyl)amino)-7-methoxy-quinazolin-6-yl)oxy)piperidin-1-yl)prop-2-en-1-one], the GI50 in assay [1] (Homo sapiens) was not above 150 nM; in assay [2] (Homo sapiens), 150 to 1000 nM.
For `C=CC(=O)N1CCC(F)(F)C(Oc2cc(OC)cc3ncnc(Nc4cc(-c5ccco5)ccc4OC)c23)C1` (centres unmarked) [Example 53, 1-(4,4-difluoro-3-((4-((5-(furan-2-yl)-2-methoxyphenyl)amino)-7-methoxy-quinazolin-5-yl)oxy)piperidin-1-yl)prop-2-en-1-one] the same measures were not above 150 nM and not above 150 nM.
Turning to `C=CC(=O)N1CC[C@@H](Oc2cc3c(Nc4cc(-c5ccco5)ccc4OC)ncnc3cc2OC)[C@@H](F)C1` [Example 178, 1-((3S,4R)-3-fluoro-4-((4-((5-(furan-2-yl)-2-methoxyphenyl)amino)-7-methoxy-quinazolin-6-yl)oxy)piperidin-1-yl)prop-2-en-1-one], the GI50 in assay [1] (Homo sapiens) and in assay [2] (Homo sapiens) was not above 150 nM each time.
`C=CC(=O)N1CCC(Oc2cc(OC)cc3ncnc(Nc4cc(-c5ccco5)ccc4OC)c23)C(F)(F)C1` (centres unmarked) [Example 195, 1-(3,3-difluoro-4-((4-((5-(furan-2-yl)-2-methoxyphenyl)amino)-7-methoxy-quinazolin-5-yl)oxy)piperidin-1-yl)prop-2-en-1-one]: the GI50 in assay [1] (Homo sapiens) and in assay [2] (Homo sapiens) was not above 150 nM throughout.
As for `C=CC(=O)N1CCC(F)(F)C(Oc2cccc3ncnc(Nc4cc(-c5ccc(F)cc5F)ccc4OC)c23)C1` (centres unmarked) [Example 200, 1-(3-((4-((2′,4′-difluoro-4-methoxy-[1,1′-biphenyl]-3-yl)amino)quinazolin-5-yl)oxy)-4,4-difluoro-piperidin-1-yl)prop-2-en-1-one], the GI50 in assay [1] (Homo sapiens) and in assay [2] (Homo sapiens) was not above 150 nM in each case.
Take `C=CC(=O)N1[C@@H]2CC[C@H]1C[C@@H](Oc1cc3c(Nc4cc(-c5ccco5)ccc4OC)ncnc3cc1OC)C2` [Example 167, 1-((1R,3r,5S)-3-((4-((5-(furan-2-yl)-2-methoxyphenyl)amino)-7-methoxy-quinazolin-6-yl)oxy)-8-azabicyclo [3.2.1]octan-8-yl)prop-2-en-1-one]: the GI50 in assay [1] (Homo sapiens) and in assay [2] (Homo sapiens) was not above 150 nM throughout.
As to `COc1cc2ncnc(Nc3cc(-c4ccc(F)cc4F)ccc3OC)c2cc1NC(=O)/C=C/CN1C2COCC1C2` [Example 319], the GI50 in assay [1] (Homo sapiens) and in assay [2] (Homo sapiens) was not above 150 nM in each case.
`C=CC(=O)N1CCC(F)(F)C(Oc2cc(OC)cc3ncnc(Nc4cc(-c5ccc(F)cc5F)ccc4OC)c23)C1` (centres unmarked) [Example 201, 1-(3-((4-((2′,4′-difluoro-4-methoxy-[1,1′-biphenyl]-3-yl)amino)-7-methoxy-quinazolin-5-yl)oxy)-4,4-difluoro-piperidin-1-yl)prop-2-en-1-one]: the GI50 in assay [1] (Homo sapiens) and in assay [2] (Homo sapiens) was not above 150 nM in each case.
As to `COc1cc2ncnc(Nc3cc(-c4ccco4)ccc3OC)c2cc1NC(=O)/C=C/CN1C2COCC1C2` [Example 318, (E)-4-(3-oxa-6-azabicyclo[3.1.1]heptan-6-yl)-N-(4-((5-(furan-2-yl)-2-methoxyphenyl)amino)-7-methoxyquinazolin-6-yl)but-2-enamide], the GI50 in assay [1] (Homo sapiens) and in assay [2] (Homo sapiens) was not above 150 nM throughout.
`COc1cc2ncnc(Nc3cc(-c4ccc(F)cc4F)c(F)cc3OC)c2cc1NC(=O)/C=C/[C@H]1CCCN1C` [Example 308, (R,E)-N-(7-methoxy-4-((2′,4′,6-trifluoro-4-methoxy-[1,1′-biphenyl]-3-yl)amino)quinazolin-6-yl)-3-(1-methylpyrrolidin-2-yl)acrylamide]: the GI50 in assay [1] (Homo sapiens) and in assay [2] (Homo sapiens) was not above 150 nM in each case.
In the case of `C=CC(=O)N1CCC(F)(F)C(Oc2cc(OC)cc3ncnc(Nc4cc(-c5ccc(F)cc5F)ccc4OC)c23)C1` (centres unmarked) [Example 100, 1-(3-((4-((2′,4′-difluoro-4-methoxy-[1,1′-biphenyl]-3-yl)amino)-7-methoxy-quinazolin-5-yl)oxy)-4,4-difluoro-piperidin-1-yl)prop-2-en-1-one], the GI50 in assay [1] and in assay [2] was not above 150 nM in each case.
`COc1cc2ncnc(Nc3cc(-c4ccc(F)cc4F)ccc3OC)c2cc1NC(=O)/C=C/CN1CCOCC1` [Example 316, (E)-N-(4-((2′,4′-difluoro-4-methoxy-[1,1′-biphenyl]-3-yl)amino)-7-methoxyquinazolin-6-yl)-4-morpholinobut-2-enamide]: the GI50 in assay [1] (Homo sapiens) and in assay [2] (Homo sapiens) was not above 150 nM in each case.
Take `C=CC(=O)N1CCC(Oc2cc3c(Nc4cc(-c5cccc(C(=O)OC)c5)ccc4OC)ncnc3cc2OC)CC1` [Example 204, methyl 3′-((6-((1-acryloyl-piperidin-4-yl)oxy)-7-methoxy-quinazolin-4-yl)amino)-4′-methoxy-[1,1-biphenyl]-3-carboxylate]: the GI50 in assay [1] (Homo sapiens) is 150 to 1000 nM; in assay [2] (Homo sapiens) it was not above 150 nM.
For `C=CC(=O)Nc1cccc(-c2ccc(OC)c(Nc3ncnc4cc(OC)c(OC5CCN(C(=O)C=C)CC5)cc34)c2)c1` [Example 208, N-(3′-((6-((1-acryloyl-piperidin-4-yl)oxy)-7-methoxy-quinazolin-4-yl)amino)-4′-methoxy-[1,1′-biphenyl]-3-yl)acrylamide] the same measures were more than 1000 nM and 150 to 1000 nM.
